Experimental data from patent US6319898A, “Method for inhibiting eukaryotic protein kinases” (Terragen Diversity, Inc., priority 1998, dated 2001).
Residues, ends and D or L forms follow the SMILES beside them.

Legend:
Streptomyces 85E = assay: Inhibition of sporulation of Streptomyces 85E, filter paper disc on seeded plate; format: cell-based, Streptomyces WEC478-85E; conditions: surfactin in these concentrations (1 to 10 ug on the disc)
Description: In the test assay, material to be tested was applied to a filter paper disk and then placed on a plate which has been freshly seeded with the strain […] test organism. The test organism is then allowed to grow in the presence of the filter paper disk for a period of 24 to 36 hours, after which the organism is evaluated for altered development in the zone around the disk. An observation of an inhibition of the formation of aerial mycelia and spores, without inhibition of the growth of vegetative mycelia is particularly indicative of the presence of an inhibitor of post-translational phosphorylation. Samples of surfactin prepared as described from Bacillus 60A as well as surfactin from Bacillus subtilis with the same molecular weight (1036) obtained from Sigma were tested for their ability to inhibit sporulation of Streptomyces […].

Human c-Src (p60^c-src) = target: T1, Human c-Src (p60^c-src) (Homo sapiens, UniProt P12931); assay: c-Src tyrosine kinase ELISA based assay (Pierce), absorbance at 450 nm; format: biochemical
T1 construct: purchased Upstate Biotechnology
T1 sequence (P12931 whole entry): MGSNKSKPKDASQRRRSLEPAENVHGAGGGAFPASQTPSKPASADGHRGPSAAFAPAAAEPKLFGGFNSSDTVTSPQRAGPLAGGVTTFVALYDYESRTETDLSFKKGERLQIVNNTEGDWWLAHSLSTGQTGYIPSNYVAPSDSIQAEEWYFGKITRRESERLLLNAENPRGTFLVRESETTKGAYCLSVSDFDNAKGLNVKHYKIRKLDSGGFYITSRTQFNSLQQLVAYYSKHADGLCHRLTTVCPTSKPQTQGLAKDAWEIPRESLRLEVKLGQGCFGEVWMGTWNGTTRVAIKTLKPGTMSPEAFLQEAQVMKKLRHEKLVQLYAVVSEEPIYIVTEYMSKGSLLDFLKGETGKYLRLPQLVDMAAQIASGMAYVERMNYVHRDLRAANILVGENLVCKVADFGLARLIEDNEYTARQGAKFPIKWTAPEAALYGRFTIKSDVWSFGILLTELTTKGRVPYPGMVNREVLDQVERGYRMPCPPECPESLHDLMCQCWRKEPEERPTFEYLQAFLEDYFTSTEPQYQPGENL
Description: Human c-Src (p60^c-src) was obtained from Upstate Biotechnology. The activity of the enzyme was assayed in an ELISA based assay developed by Pierce. Following their protocol, 500 ng of a biotinylated peptide substrate in distilled water (Pierce biotinylated peptide substrate #2, sequence Biotin-EGPWLEEEEEAYGWMDF) (SEQ ID NO:2) was added to a NeutrAvidin™ coated well, incubated at 37° C. for 30 minutes to allow binding to the well then washed with Tris-buffered saline (TBS, 25 mM Tris, 0.15 M NaCl, pH 7.6). For each reaction, a reaction buffer mixture was prepared to contain 10 ul of src assay buffer (100 mM Tris-HCl, pH 7.2, 25 mM MnCl2, 2.0 mM EGTA, 0.25 mM Na3 VO4, 125 mM Mg Acetate) 20 ul of ATP/MgCl2 buffer (5 mM ATP, 50 MM MgCl2 in TBS) and 1 ul of protease inhibitor mix (PMSF and pepstatin, final concentrations in Rx: 0.5 mM and 1.5 uM). The src enzyme is supplied at a concentration of 3 units per microliter and dilutions of the kinase were prepared in 1% bovine serum albumin (BSA) in TBS typically to final concentrations of 0.2 or 0.4 units in 10 ul. 10 ul of a solution of a compound to be tested for inhibitory activity was added to the reaction buffer mixture and allowed to stand 10-15 min. at room temperature, then 10 ul of the diluted kinase enzyme was added and the mixture was allowed to stand 10 min. at room temperature before addition to the substrate coated well. The plate was incubated at 30° C. for varying periods of time then the contents were washed out with repeated rinsings with TBS. A mouse monoclonal anti-phosphotyrosine antibody (PY20) conjugated to horseradish peroxidase (Pierce) was diluted 1:2000 in 1% BSA diluent from 1 mg/ml and 75 ul of this dilution was added to each well, incubated 1 hour at 37° C. then washed out with repeated rinsings with TBS.
100 ul of horseradish peroxidase substrate solution (3,3',5,5' tetramethylbenzidine and H2 O2, Pierce TMB-ELISA) was added to each well and after 10 min. the reaction was stopped with the addition of 100 ul of 1 N H2 SO4. Absorbance was read at 450 nm in a Molecular Devices V-max plate reader.
Examples of inhibition detected using this assay: (Values reported are the absorbance readings after subtraction of a blank well containing no enzyme.)

S. aureus = assay: Growth inhibition of S. aureus; format: cell-based; conditions: surfactin in these concentrations (1 to 10 ug on the disc)
Text: (§1) Eventually the inhibition is overcome and the culture sporulates.

E. coli = assay: Growth inhibition of E. coli; format: cell-based; conditions: surfactin in these concentrations (1 to 10 ug on the disc)
Text: as §1

[1] = system: Protein Kinase C purified from rat brain; assay: Protein Kinase C colorimetric assay (Pierce), absorbance at 570 nm; format: biochemical; conditions: for absorbance read at 570 nm: 10 ng PKC + 10 ug, 30 min at 30° C, control reaction 0.228 (srf), 0.203 (polymyxin B)
Description: Protein Kinase C purified from rat brain was obtained from Upstate Biotechnology. The activity of the enzyme was assayed in a colorimetric assay developed by Pierce. Reaction mixtures were prepared to contain 5 ul each of the 5×reaction buffer, the dye labeled glycogen synthase synthetic peptide substrate reconstituted to 1.77 mM and the 5× activator solution of phosphatidyl-L-serine, all supplied by Pierce in a PKC assay kit. The activator solution was sonicated for 30 sec. on ice prior to use. 1 ul of the kinase (equivalent to 10 ng of enzyme with a specific activity of 12.1 units/mg) was added to 10 ul of a solution containing the compound to be tested for inhibitory activity and allowed to stand at room temperature for 10 minutes then transferred to the reaction tube containing the substrate and incubated 30 min. at 30° C. After incubation 20 ul of each sample was applied to the centre of the affinity membrane in the separation units supplied with the assay kit. These membranes specifically bind the phosphorylated dye labeled substrate while non-phosphorylated peptide will pass through when spun at low speeds. After washing the membranes the phosphorylated peptide was eluted by spinning with the elution buffer and absorbance read at 570 nm in a Molecular Devices V-max plate reader.

Compound	inhibition of growth of the vegetative mycelia (Streptomyces 85E)	persistence of the inhibition of aerial mycelia and spore formation after unaffected portions of the culture have sporulated (Streptomyces 85E) [days]	inhibition of the activity of the tyrosine kinase (Human c-Src (p60^c-src); 100 uM in the reaction)	inhibition of the activity of the tyrosine kinase (Human c-Src (p60^c-src); 200 uM in the reaction (10 ug))	absorbance reading after subtraction of a blank well containing no enzyme (Human c-Src (p60^c-src); 0.05 unit c-Src + 10 ug, 30 min at 30° C, control reaction 0.315)	absorbance reading after subtraction of a blank well containing no enzyme (Human c-Src (p60^c-src); 0.1 unit c-Src + 10 ug, 30 min at 30° C, control reaction 0.391)	absorbance reading after subtraction of a blank well containing no enzyme (Human c-Src (p60^c-src); 0.2 unit c-Src + 5 ug, 5 min at 30° C, control 0.220)	absorbance reading after subtraction of a blank well containing no enzyme (Human c-Src (p60^c-src); 0.2 unit c-Src + 10 ug, 5 min at 30° C, control 0.220)	absorbance reading after subtraction of a blank well containing no enzyme (Human c-Src (p60^c-src); 0.2 unit c-Src + 10 ug, 30 min at 30° C, control reaction 0.396)	absorbance reading after subtraction of a blank well containing no enzyme (Human c-Src (p60^c-src); 0.4 unit c-Src + 10 ug, 30 min at 30° C, control reaction 0.517)	potency against the tyrosine kinase c-Src compared with the serine-threonine kinase PKC (Human c-Src (p60^c-src); conclusion from the c-Src and PKC assays)	inhibition of growth of S. aureus (S. aureus)	inhibition of growth of E. coli (E. coli)	absorbance read at 570 nm [1]	inhibition of Protein Kinase C ([1]; 380 uM in the reaction)
CC(C)CCCCCCCCC[C@@H]1CC(=O)N[C@@H](CCC(=O)O)C(=O)N[C@@H](CC(C)C)C(=O)N[C@H](CC(C)C)C(=O)N[C@@H](C(C)C)C(=O)N[C@@H](CC(=O)O)C(=O)N[C@H](CC(C)C)C(=O)N[C@@H](CC(C)C)C(=O)O1 [surfactin] (HELM PEPTIDE1{E.L.[dL].V.D.[dL].L}|CHEM1{[CC(C)CCCCCCCCC[C@H](CC(=O)[*:1])O[*:2]]}$PEPTIDE1,CHEM1,1:R1-1:R1|PEPTIDE1,CHEM1,7:R2-1:R2$$$V2.0)	does not inhibit growth of the vegetative mycelia	3 to 4	has inhibited the activity of the tyrosine kinase tested	has inhibited the activity of the tyrosine kinase tested	0.050	0.093	0.185	0.087	0.191	0.311	more potent inhibitors of the tyrosine kinase tested than this serine-threonine kinase	does not inhibit growth	does not inhibit growth	0.181	only minimally inhibitory
Polymyxin B [reference compound]	–	–	–	–	–	–	–	–	–	–	–	–	–	0.035	–
